Results on three compounds are retold here after patent US12279855B2, “Highly-timed resolved myocardial blood-oxygen-level-dependent magnetic resonance imaging” (Cedars-Sinai Medical Center, priority 2018, dated 2025).

For data set [1] the following is noted: extended vasodilatory state, cited from earlier work.
Data set [2] deals with Anesthetized dogs (intact; with chronic myocardial infarction), myocardium. In words: Beat-to-beat cardiac BOLD MRI at 3T before and after regadenoson injection. It is filed as in vivo, dog. The method, then:
FIG. 2A-FIG. 2F depicts in accordance with various embodiments of the invention, dynamics of BOLD response at rest and under the influence of regadenoson. BOLD response was relatively flat (fluctuated within +/−5%) throughout the measurement at rest (FIG. 2A), but peaks at 2-3 minutes after regadenoson injection to 10-15% and then plateaus after 4 minutes of injection (FIG. 2B). […] BOLD response was relatively flat in Remote and Affected territories at rest (FIG. 2D). However, under the influence of regadenoson (FIG. 2E), the BOLD response remained flat in Affected myocardium, while there was a delayed but rising BOLD response in Remote myocardium peaking at approximately 5 minutes was observed (FIG. 2E). The corresponding LGE image (with evidence of infarction) of the slice and where BOLD responses were measured are shown in FIG. 2F.
Methods. The proposed cardiac BOLD MRI approach was developed based on a LRT formalism (acquisition and reconstruction) that was previously used for ungated cardiac T1 mapping. It is composed of 3 parts: (i) adiabatic T2 preparation that is repeated at a fixed interval to ensure consistent T2 weighting; (ii) repeat acquisition of a set of central k-space lines with GRE readout every other TR to serve as respiratory and cardiac navigators for reconstruction; and (iii) interleaving of a set of golden-ratio radial GRE readout lines with the navigator lines serving as LRT training data. In brief, we modeled a high-dimensional cardiac image space (cardiac motion (Uc), respiratory motion (Ur), T1 recovery time (Ut), and time after excitation (Ut)) as a low-rank tensor that is partially separable. The complete tensors of all subspaces were recovered from the frequently sampled navigator signal using LRT completion. Subsequently cardiac and respiratory phased-resolved, beat-to-beat cardiac BOLD images were reconstructed. Anesthetized dogs (intact, n=2; and with chronic myocardial infarction, n=2) underwent continuous acquisition in a 3T MRI system (Siemens, Verio) that began 1-minute prior to regadenoson injection ([…]; duration of injection=30 sec) and ended 6 minutes after regadenoson injection. The data acquisition and reconstruction schemes are illustrated in FIG. 1. Sequence parameters were: scan time: 6 mins, delay between T2prep=800 ms; TE (T2prep time)=60 ms; GRE readout (TE/TR=1.4/3.3 ms, flip angle=12°, FOV=270×270 mm2, in-plane resolution: 1.7×1.7 mm2, 1 slice of thickness: 6 mm).
Results. […] LGE images show the region where the BOLD responses were measured. […] In animals with chronic MI (FIG. 2D, FIG. 2E and FIG. 2F), rest BOLD Response was also relatively stable in the infarcted and remote myocardium. However, following regadenoson injection, there was no response in the affected (infarcted) myocardium; but in the remote myocardium, a noticeably delayed hyperemic BOLD Response was observed (compared to intact animals), which peaked ˜5 minutes after regadenoson injection and plateaued to above 25%.

Where [3] appears, read: intact animal, healthy myocardium, regadenoson 2.5 mg/kg over 30 sec.

Entries after “also recorded” stand apart in the source; their conditions may differ. Like-named read-outs stand apart in the source and are kept apart here.

On to `Nc1nc(N/N=C/C2CCCCC2)nc2c1ncn2[C@@H]1O[C@H](CO)[C@@H](O)[C@H]1O` [binodenoson], for which the terminal half-life in data set [1] (literature references) is 10 to 120 min.

Take `OCCN(CCO)c1nc(N2CCCCC2)c2nc(N(CCO)CCO)nc(N3CCCCC3)c2n1` [dipyridamole]: the terminal half-life in data set [1] (range printed in mixed units (min to hours), literature reference) was 40 to 600 min.

Regarding `CNC(=O)c1cnn(-c2nc(N)c3ncn([C@@H]4O[C@H](CO)[C@@H](O)[C@H]4O)c3n2)c1` [regadenoson], the terminal half-life in data set [1] (literature references) was 33 to 108 min. Moreover, the “BOLD response in Affected (infarcted) myocardium” value in data set [2] (animal with chronic MI, affected territory, regadenoson 2.5 mg/kg over 30 sec) is listed as “remained flat; also recorded: no response”. In addition, the “plateau of BOLD Response in Remote myocardium” value in data set [2] (animal with chronic MI, remote territory, regadenoson 2.5 mg/kg over 30 sec) is reported as “above 25%”. In data set [2] (setting [3]), the “plateau of normalized BOLD Response” value is “more than 10%”, the “time after injection at which BOLD response plateaus” value was determined as 4 min and the “time over which BOLD response rises / peaks after regadenoson injection” value is 2 to 3 min. For the same compound, in data set [2] (intact animal, healthy myocardium, regadenoson injection 2.5 mg/kg over 30 sec, normalized BOLD response), the “BOLD response at peak after regadenoson injection” value is on record as 10-15%.
